{"source": "patent US8022036B2", "about": "“Use of thymosin alpha 1 for the treatment of immunological diseases” (Sigma-Tau Industrie Farmaceutiche Riunite S.p.A., priority 2006, dated 2011)", "key": {"GM-DCs or FL-DCs": {"system": "GM-DCs or FL-DCs", "test": "Cytokine production (ELISA) by murine GM-DCs or FL-DCs with Aspergillus conidia", "format": "cell-based, mouse", "conditions": "1-MT added at 2 μM", "from_the_text": "GM-DCs or FL-DCs were obtained from purified CD14+ monocytes from healthy donors or transplanted patients (1 month post-HSCT) cultured in Iscove's modified medium for 7-9 days, in the presence of rGM-CSF (Schering-Plough, Milan, Italy) and rIL-4 (Peprotech, Inalco, Milan, Italy) or FLT3-L (Immunex Corporation, Seattle, Wash.) (Blood. 2004; 103:4232-4239). DC recovery was between 20-30% reduced in cultures from transplanted patients. Murine GM-DCs or FL-DCs were obtained from bone marrow cells for 7-9 days, as described (Blood. 2004; 103:4232-4239). Thymosin alpha 1 and sThymosin alpha 1 were added to the cultures at 20 ng/mL. DCs (>99% CD11c+ consisting of 90-95% CD8-, 5-10% CD8+, and 1-5% B220+ cells) were purified from spleens (spDCs) by magnetic-activated sorting using CD11c MicroBeads and MidiMacs (Miltenyi Biotech). DC populations were further separated into CD8−, CD8+ and B220+ fractions by means of CD8 or B220 MicroBeads (Miltenyi Biotech). DCs were pulsed in serum-free Iscove medium for 24 hours with live unopsonized Aspergillus conidia or Zymosan from Saccharomyces cerevisiae (Sigma) or CpG-ODN 2006 as described.7 Phagocytosis was done as described (Blood. 2004; 103:4232-4239). Photographs were taken using a high Resolution Microscopy Color Camera AxioCam, using the AxioVision Software Rel. 3.1 (Carl Zeiss, Milan, Italy).\n(§1) Cytokine content was assessed by enzyme-linked immunosorbent assays (Endogen Human Elisa Kits, R&D Systems and Euroclone, Milan, Italy). AID EliSpot assay kits (Amplimedical, Buttigliera Alta, Turin, Italy) were used on purified splenic CD4+ Tcells cocultured with conidia-pulsed DCs for 5 days to enumerate cytokine-producing cells (Blood. 2003; 102:3807-3814). 1-MT was used at 2 μM.\n(B) Cytokine production (ELISA) by GM-DCs or FL-DCs cultured in serum-free medium (1×10^6 cells/mL) with unopsonized Aspergillus conidia (5×10^5/mL) for 24 hours. The IDO inhibitor 1-MT was added at 2 μM. Data are aggregated results from three independent experiments. The detection limits (pg/mL) of the assays were <16 for IL-12p70 and <12 for IL-10."}, "splenic CD4+ T cells": {"system": "splenic CD4+ T cells", "test": "Th1/T reg priming in vitro of splenic CD4+ T cells by Aspergillus-pulsed DCs (ELISPOT, flow cytometry)", "format": "cell-based, mouse", "protocol": "IDO expression and functional activity were assessed as described in Nat. Immunol. 2002; 3:1097-1101. Generation, purification and activity of T reg cells Splenic CD4+ T-cells were cocultured with conidia-pulsed DCs for 5 days […] before flow cytometry or ELISPOT assay. 1-MT (Sigma-Aldrich) was used at 2 μM. CD4+CD25+ and CD4+CD25− cells (>90% pure on FACS analysis) were separated by magnetic cell sorting from lung and TLN (J. Immunol. 2006; 176:1712-1723). For T reg cell inhibition, 5×10^4 TLN T reg cells were added to 3×10^5 CD4+CD25− cells, both from transplanted mice, stimulated with 3×10^4 autologous Aspergillus conidia-pulsed spDCs or with or 1.5×10^5 allogeneic spDCs from naïve donor mice for five days before H^3-thymidine labeling. Purified peritoneal CD 11b+Gr−1+PMN (>98% pure on FACS analysis) (2×10^6) were exposed to resting conidia in the presence of 4×10^5 CD4+CD25+ for 60 min for oxidant production or 24 hours for cytokine production (J. Immunol. 2006; 176:1712-1723).\nas §1\n(A) Frequency of IFN-γ-/IL-10-producing splenic CD4+ T cells activated by Aspergillus-pulsed Thymosin alpha 1-treated GM-DCs or FL-DCs. 1-MT was present in selected cultures. Plates were read with the AID-EliSpot Reader System (Amplimedical). Values are means±SE per 10^6 cells of samples from 3-5 experiments, calculated using replicates of serial twofold dilutions of cells. (*) P<0.05, conidia-exposed versus unexposed cells; (**) P<0.05, thymosin-exposed versus unexposed cells.\n(B) Phenotypic analysis of CD4+ cells cultured alone (−) or as in (A). Numbers represent the percentage of double positive cells."}}, "data": [{"compound": "Cn1cc(CC(N)C(=O)O)c2ccccc21", "note": "(racemic) [1-MT, 1-methyl-DL-tryptophan]", "values": [{"measurement": "IL-10 production by DCs in response to Thymosin alpha 1", "setting": "GM-DCs or FL-DCs", "value": "blocked"}, {"measurement": "expansion of Foxp3+CTLA4+CD25+ T cells co-cultured with FL-DCs", "setting": "splenic CD4+ T cells; 1-MT", "value": "appeared to interfere with the expansion"}, {"measurement": "IFN-γ-producing cells", "setting": "splenic CD4+ T cells; IDO blockade, 1-MT 2 μM", "value": "had no effect"}, {"measurement": "activation of IL-10-producing CD4+ cells", "setting": "splenic CD4+ T cells; IDO blockade, 1-MT 2 μM", "value": "prevented activation"}]}]}
